In PubChem BioAssay (NCI):
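Dose response: 5 concentrations. Exposure: 48 h. Format: 96-well plates. Endpoint: linear interpolation; highest concentration if not reached. Definition used: TGI = concentration required for complete inhibition of growth.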

Columns and labels:
Test in all cases: inhibition of tumour cell growth, NCI panel, 48 h
786-0 renal = system: 786-0 renal
A498 renal = system: A498 renal
ACHN renal = system: ACHN renal
CAKI-1 renal = system: CAKI-1 renal
DU-145 prostate = system: DU-145 prostate
EKVX NSCLC = system: EKVX NSCLC
HCC-2998 colon = system: HCC-2998 colon
HL-60(TB) leukemia = system: HL-60(TB) leukemia
HOP-62 NSCLC = system: HOP-62 NSCLC
HT29 colon = system: HT29 colon
KM12 colon = system: KM12 colon
MDA-MB-435 = system: MDA-MB-435
PC-3 prostate = system: PC-3 prostate
RPMI-8226 leukemia = system: RPMI-8226 leukemia
SF-539 CNS = system: SF-539 CNS
SR leukemia = system: SR leukemia
U251 CNS = system: U251 CNS
UO-31 renal = system: UO-31 renal
NCI-H23 lung = system: NCI-H23 lung
SF-295 CNS = system: SF-295 CNS

| SMILES | TGI (786-0 renal) [µM] | TGI (A498 renal) [µM] | TGI (ACHN renal) [µM] | TGI (CAKI-1 renal) [µM] | TGI (DU-145 prostate) [µM] | TGI (EKVX NSCLC) [µM] | TGI (HCC-2998 colon) [µM] | TGI (HL-60(TB) leukemia) [µM] | TGI (HOP-62 NSCLC) [µM] | TGI (HT29 colon) [µM] | TGI (KM12 colon) [µM] | TGI (MDA-MB-435) [µM] | TGI (PC-3 prostate) [µM] | TGI (RPMI-8226 leukemia) [µM] | TGI (SF-539 CNS) [µM] | TGI (SR leukemia) [µM] | TGI (U251 CNS) [µM] | TGI (UO-31 renal) [µM] | TGI (NCI-H23 lung) [µM] | TGI (SF-295 CNS) [µM] |
| --- | --- | --- | --- | --- | --- | --- | --- | --- | --- | --- | --- | --- | --- | --- | --- | --- | --- | --- | --- | --- |
| O=C1N[C@H]2c3c(Cl)sc(Cl)c3[C@@H](O)[C@H]2O1 | > 100 | > 100 | > 100 | > 100 | > 100 | > 100 | > 100 | > 100 | > 100 | > 100 | > 100 | > 100 | > 100 | > 100 | > 100 | > 100 | > 100 | > 100 | – | – |
| COc1ccccc1N(CN1C(=O)CCC1C(=O)O)C(C)=O (centres undefined) | > 100 | > 100 | > 100 | > 100 | > 100 | > 100 | > 100 | > 100 | > 100 | > 100 | > 100 | > 100 | > 100 | > 100 | > 100 | > 100 | > 100 | > 100 | > 100 | > 100 |
| CN(C)/N=C(/CC(O)(C(F)(F)F)C(F)(F)F)c1ccc([N+](=O)[O-])cc1 | > 100 | > 100 | > 100 | > 100 | > 100 | > 100 | > 100 | > 100 | > 100 | > 100 | > 100 | > 100 | > 100 | > 100 | > 100 | > 100 | > 100 | > 100 | > 100 | > 100 |
| CC(C)(C)OC(=O)CN1C(=O)CC1CC(=O)c1ccccc1 (centres undefined) | 32.9 | 64 | 41.7 | 49.4 | 34.2 | 35.7 | 63.2 | 47.9 | 34.2 | 37.4 | 44.4 | 41.2 | 30.9 | 15.3 | 34.9 | 19.1 | 29.4 | 31.4 | 36.5 | 73.8 |
| O=[N+]([O-])c1ccc2c(c1)S(=O)(=O)N1Cc3ccccc3CCN21 | > 100 | > 100 | > 100 | > 100 | > 100 | > 100 | > 100 | > 100 | > 100 | > 100 | > 100 | > 100 | > 100 | > 100 | > 100 | > 100 | > 100 | > 100 | > 100 | > 100 |
| COC(=O)c1cc2c(cc1CC1Cc3cc4c(cc3C1=O)CCC4)CCC2 (centres undefined) | > 100 | > 100 | > 100 | > 100 | > 100 | > 100 | > 100 | > 100 | > 100 | > 100 | > 100 | > 100 | > 100 | > 100 | > 100 | > 100 | > 100 | > 100 | > 100 | 89.2 |
| COc1ccc(C(=O)c2sc(N(C)C)nc2-c2ccccc2)cc1 | > 100 | 93.1 | > 100 | – | > 100 | – | 48.5 | 40.9 | > 100 | > 100 | 73 | 52 | > 100 | > 100 | > 100 | > 100 | > 100 | > 100 | > 100 | – |
| CC(=O)N(C(C)=O)n1c(Cc2ccc(Cl)cc2)n[nH]c1=O | > 100 | > 100 | > 100 | > 100 | > 100 | > 100 | > 100 | > 100 | 98.8 | > 100 | > 100 | > 100 | > 100 | > 100 | > 100 | > 100 | > 100 | > 100 | > 100 | > 100 |
| COC(=O)/C=C(/C=C1/C(C#N)=C(N)N(c2ccc(Cl)cc2)C1(C)/C(=C/C(=O)OC)C(=O)OC)C(=O)OC (centres undefined) | > 100 | > 100 | > 100 | > 100 | > 100 | > 100 | > 100 | 41.8 | > 100 | > 100 | – | > 100 | > 100 | > 100 | > 100 | > 100 | > 100 | > 100 | > 100 | > 100 |
| CCOC(=O)C1(Cc2ccccc2)C=CN(C(=O)c2ccccc2)C=C1 | > 100 | 74.3 | > 100 | > 100 | > 100 | > 100 | > 100 | 45.7 | > 100 | > 100 | > 100 | 90.5 | > 100 | 48.6 | > 100 | 67.5 | > 100 | > 100 | > 100 | > 100 |
| c1ccc(-c2cn3c(nc4ccccc43)c(-c3ccccc3)n2)cc1 | 45.1 | > 78.1 | > 100 | > 100 | > 100 | > 100 | > 100 | > 100 | 27.9 | > 100 | > 100 | > 100 | > 100 | > 100 | > 100 | > 100 | 32.1 | > 65.4 | > 100 | > 71.9 |
| CC1(C)C2CCC(CN)(C2)C1N (centres undefined) | > 100 | > 100 | > 100 | > 100 | > 100 | > 100 | > 100 | > 100 | > 100 | > 100 | > 100 | > 100 | > 100 | > 100 | > 100 | > 100 | > 100 | > 100 | > 100 | > 100 |
| COC(=O)C1=C(O)C(C(=O)OC)[C@]2(O)[C@H](C(=O)OC)[C@H]1C[C@@H](c1ccc(Cl)cc1)[C@H]2C(=O)OC (some centres undefined) | 23.9 | 27.2 | 39.9 | > 100 | 30.4 | 30.6 | 22 | 12.9 | 24 | 32 | 46.6 | 25.4 | 18.8 | > 100 | 20.9 | > 100 | 20.9 | 21.4 | 22.9 | 20.6 |
| COC1(C)CP(=O)(OC(C)C)CC(C)=C1Cl (centres undefined) | 60 | 37.6 | > 100 | 36.8 | 82.7 | 29.6 | 49.1 | 29.1 | 51.7 | 26.5 | 34 | > 100 | 77.9 | 24.4 | 39.2 | > 100 | 48.9 | 34.2 | 32.4 | 51 |
| CCCCCCCCCCCCN(CC(O)C(O)C(OC1OC(CO)C(O)C(O)C1O)C(O)CO)C(=O)CCCCCCCCCCC (centres undefined) | 33.8 | 41.8 | 31 | 33.3 | 35.8 | 34.4 | 32.6 | > 100 | 55.6 | 34.4 | 36.7 | 30.8 | 52.9 | 50.9 | > 100 | 57.8 | 32.6 | 45.8 | 46.2 | 37.3 |
| CCOC(=O)c1cc2c([nH]1)c(O)cc1c2ccn1Cc1ccccc1 | 32.6 | 82.4 | – | 36.8 | 34.3 | 26.7 | 37 | 33.9 | 38.7 | 30.2 | 24.8 | 31 | 34.2 | 27.9 | 40.2 | 16.9 | 31.6 | 29.3 | 28.1 | 31.6 |
| Clc1ccccc1-c1nc2ccc(C34CC5CC(CC(C5)C3)C4)cc2[nH]1 | 25.9 | 70 | 28.8 | > 100 | > 100 | > 100 | > 100 | > 100 | 34.9 | 37.9 | > 100 | > 100 | 34 | > 100 | – | 40.5 | 20.5 | 28.1 | 36.4 | 32 |
| O=C(O)COCC(=O)N(CCOCCN(Cc1ccccc1)C(=O)COCC(=O)O)Cc1ccccc1 | > 100 | > 100 | > 100 | > 100 | > 100 | > 100 | > 100 | > 100 | > 100 | > 100 | > 100 | > 100 | > 100 | > 100 | > 100 | > 100 | > 100 | – | > 100 | > 100 |
| O=C1N=C(SC2OC(CO)C(O)C(O)C2O)S/C1=C\c1ccccc1 (centres undefined) | > 100 | > 100 | > 100 | > 100 | > 100 | – | > 100 | > 100 | > 100 | > 100 | > 100 | > 100 | > 100 | > 100 | > 100 | > 100 | – | > 100 | > 100 | > 100 |
